Measured values: article PMC9005681, “Use of AD Informer Set compounds to explore validity of novel targets in Alzheimer's disease pathology” (Alzheimer's & Dementia : Translational Research & Clinical …, 2022)
Values joined by “and” are separate entries in the source; they are usually repeats but may differ in a detail not shown here. Identical values can stand only once.

How the values were obtained:
[1] = biological target: T1, cloned human or rodent CNS receptors, channels, and transporters (PDSP panel) (Cavia porcellus, UniProt Q60492); test: PDSP GPCR panel primary binding assays at 10 μM; conditions: Sigma 1, primary assay
T1 construct: expressed in transfected cells
In short: (§1)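 PDSP panel of 46–47 cloned human or rodent CNS receptors, channels and transporters; radioligand displacement by compound at 10 μM, in quadruplicate. Where average displacement exceeded 50%, secondary binding followed as 11-point dose-response in triplicate (none for H3, PBR or GABAA).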

[2] = biological target: T2, cloned human or rodent CNS receptors, channels, and transporters (PDSP panel) (Homo sapiens, UniProt P08908); test: PDSP GPCR panel primary binding assays at 10 μM; conditions: 5-HT1A, primary assay
T2 construct: expressed in transfected cells
T2 sequence (P08908 1-422): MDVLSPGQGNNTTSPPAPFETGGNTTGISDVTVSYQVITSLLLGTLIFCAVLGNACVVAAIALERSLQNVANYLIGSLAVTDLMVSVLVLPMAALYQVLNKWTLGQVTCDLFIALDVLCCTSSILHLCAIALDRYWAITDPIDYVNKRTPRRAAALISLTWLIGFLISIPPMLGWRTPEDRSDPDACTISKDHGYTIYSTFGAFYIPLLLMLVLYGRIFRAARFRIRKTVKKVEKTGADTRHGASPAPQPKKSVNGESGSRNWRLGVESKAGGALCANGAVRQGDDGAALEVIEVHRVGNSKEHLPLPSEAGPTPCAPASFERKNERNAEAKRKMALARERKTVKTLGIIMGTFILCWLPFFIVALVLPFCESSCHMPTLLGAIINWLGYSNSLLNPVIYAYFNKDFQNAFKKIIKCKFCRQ
In short: as §1

[3] = biological target: T3, cloned human or rodent CNS receptors, channels, and transporters (PDSP panel) (Homo sapiens, UniProt P23975); test: PDSP GPCR panel primary binding assays at 10 μM; conditions: NET, primary assay
T3 construct: expressed in transfected cells
In short: as §1

[4] = biological target: T4, cloned human or rodent CNS receptors, channels, and transporters (PDSP panel) (Homo sapiens, UniProt P28221); test: PDSP GPCR panel primary binding assays at 10 μM; conditions: 5-HT1D, primary assay
T4 construct: expressed in transfected cells
In short: as §1

[5] = biological target: T5, cloned human or rodent CNS receptors, channels, and transporters (PDSP panel) (Rattus norvegicus, UniProt Q5U3Y7); test: PDSP GPCR panel primary binding assays at 10 μM; conditions: Sigma 2, primary assay
T5 construct: expressed in transfected cells
T5 sequence (Q5U3Y7 1-176): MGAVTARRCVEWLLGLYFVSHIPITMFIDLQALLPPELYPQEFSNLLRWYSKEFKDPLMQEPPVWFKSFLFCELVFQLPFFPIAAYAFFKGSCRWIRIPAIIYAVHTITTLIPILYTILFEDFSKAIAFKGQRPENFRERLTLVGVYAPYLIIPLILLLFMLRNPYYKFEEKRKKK
In short: as §1

[6] = Plasma plus brain concentrations at 1 h after IV dose; assay type: in vivo; conditions: mouse, brain and plasma, CD1 mice, IV 10 mg/kg
Protocol: Compounds with acceptable PK were dosed IV at 10 mg/kg and plasma plus brain
concentrations measured at 1h in CD1 mice (3 mice per cohort, Table 2). […]

[7] = system: CAPN2; design: method as in Probe Miner, PubMed 9637399, 31133534, 30052328; conditions: published affinity; ref Probe Miner, PubMed 9637399, 31133534, 30052328; cited from earlier work

T4 sequence (P28221 whole entry): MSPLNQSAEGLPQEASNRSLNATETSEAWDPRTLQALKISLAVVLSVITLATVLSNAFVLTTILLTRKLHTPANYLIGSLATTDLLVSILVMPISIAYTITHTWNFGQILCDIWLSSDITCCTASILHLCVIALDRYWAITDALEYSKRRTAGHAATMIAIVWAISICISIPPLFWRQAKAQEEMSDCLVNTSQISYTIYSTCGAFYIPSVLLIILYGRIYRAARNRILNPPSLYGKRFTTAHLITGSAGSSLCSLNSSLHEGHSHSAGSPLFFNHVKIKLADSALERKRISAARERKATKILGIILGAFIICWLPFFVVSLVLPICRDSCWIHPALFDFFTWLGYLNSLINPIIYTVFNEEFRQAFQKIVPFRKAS
T1 sequence (Q60492 whole entry): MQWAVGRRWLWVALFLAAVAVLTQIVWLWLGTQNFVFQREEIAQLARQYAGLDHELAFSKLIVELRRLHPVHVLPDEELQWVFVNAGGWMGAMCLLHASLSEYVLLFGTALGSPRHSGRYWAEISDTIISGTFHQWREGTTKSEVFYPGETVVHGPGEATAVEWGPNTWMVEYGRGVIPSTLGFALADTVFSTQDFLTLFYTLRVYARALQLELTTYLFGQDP
T3 sequence (P23975 whole entry): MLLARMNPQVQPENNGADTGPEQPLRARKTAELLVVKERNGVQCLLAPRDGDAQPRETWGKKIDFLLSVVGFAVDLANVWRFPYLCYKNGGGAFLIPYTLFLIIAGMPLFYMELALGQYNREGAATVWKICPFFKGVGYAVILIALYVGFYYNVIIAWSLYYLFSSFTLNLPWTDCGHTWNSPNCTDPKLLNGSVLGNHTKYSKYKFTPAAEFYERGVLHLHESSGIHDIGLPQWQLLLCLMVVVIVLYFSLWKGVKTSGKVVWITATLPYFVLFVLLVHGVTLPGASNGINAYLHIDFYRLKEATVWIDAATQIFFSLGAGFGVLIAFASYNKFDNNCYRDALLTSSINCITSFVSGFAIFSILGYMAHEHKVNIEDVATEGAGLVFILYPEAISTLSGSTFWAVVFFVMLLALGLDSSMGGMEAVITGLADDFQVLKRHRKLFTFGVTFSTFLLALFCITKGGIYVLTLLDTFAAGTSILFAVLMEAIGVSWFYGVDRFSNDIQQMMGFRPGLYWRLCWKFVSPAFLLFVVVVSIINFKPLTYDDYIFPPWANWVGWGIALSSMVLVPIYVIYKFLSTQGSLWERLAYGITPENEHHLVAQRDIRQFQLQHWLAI

O=C(NC1CC1)C(=O)C(Cc1ccccc1)NC(=O)[C@H]1CCC(=O)N1Cc1ccccc1 (stereo partly drawn) [UNC10302676A, ABT-957 (Alicapistat)]
Inhibition 1 ([1]; replicate 1): 5.01% | Inhibition 2 ([1]; replicate 2): -7.02% | Inhibition 3 ([1]; replicate 3): -4.4% | Inhibition 4 ([1]; replicate 4): -3.65% | Mean % ([2]; mean inhibition): 3.84% | Inhibition 1 ([2]; replicate 1): 12.84% | Inhibition 2 ([2]; replicate 2): 2.5% | Inhibition 3 ([2]; replicate 3): 6.64% | Inhibition 4 ([2]; replicate 4): -6.64% | Inhibition 1 ([3]; replicate 1): 22.45% and -0.84% | Inhibition 2 ([3]; replicate 2): -3.8% and -22.08% | Inhibition 3 ([3]; replicate 3): -17.85% and -14.66% | Inhibition 4 ([3]; replicate 4): -11.29% and -22.96% | Mean % ([4]; mean inhibition): 14.89% | Inhibition 1 ([4]; replicate 1): 25.3% | Inhibition 2 ([4]; replicate 2): 16.14% | Inhibition 3 ([4]; replicate 3): 8.22% | Inhibition 4 ([4]; replicate 4): 9.89% | Inhibition 1 ([5]; replicate 1): 16.59% | Inhibition 2 ([5]; replicate 2): 3.8% | Inhibition 3 ([5]; replicate 3): 13.22% | Inhibition 4 ([5]; replicate 4): -4.38% | Kp at 1 h [6]: 0.015 | Reported on-target biochemical potency, CAPN2 [7]: 56 nM
